Reference: patent US9073882B2, “Inhibitors of the renal outer medullary potassium channel” (Merck Sharp & Dohme Corp., priority 2010, dated 2015)
pIC50: −log10 of the molar value. Like-named read-outs stand apart in the source and are kept apart here.

Target: hROMK1 (Kir1.1) (Homo sapiens (Human), UniProt P48048)
Assay: ^86Rb^+ Efflux Assay
Assay type: cell-based
Details: CHO-DHFR- cells stably expressing hROMK1 (Kir1.1)
[1] = value in parentheses at the end of each Example, read-out: IC50 in the ^86Rb^+ Efflux Assay

hROMK1 (Kir1.1), sequence (P48048 whole entry): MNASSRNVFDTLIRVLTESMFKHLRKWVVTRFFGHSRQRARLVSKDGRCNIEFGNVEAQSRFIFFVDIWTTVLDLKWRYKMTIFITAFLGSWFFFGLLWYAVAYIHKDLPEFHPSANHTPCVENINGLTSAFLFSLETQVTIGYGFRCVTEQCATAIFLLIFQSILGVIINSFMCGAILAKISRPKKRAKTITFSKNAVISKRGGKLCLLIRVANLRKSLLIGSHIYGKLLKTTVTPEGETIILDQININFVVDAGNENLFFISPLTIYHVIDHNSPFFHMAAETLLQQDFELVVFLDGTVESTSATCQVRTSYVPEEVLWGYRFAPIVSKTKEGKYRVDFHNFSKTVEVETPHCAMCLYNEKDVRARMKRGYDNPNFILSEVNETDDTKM

Row | Compound | pIC50 [1] | pIC50 (Table 1, read-out: ^86Rb^+ Efflux Assay IC50)
1 | N#Cc1ccc2c(c1)OCCC2CN1CCN(CCc2ccc3c(c2)COC3=O)CC1 (centres unmarked) [Example 36, 4-({4-[2-(1-Oxo-1,3-dihydro-2-benzofuran-5-yl)ethyl]piperazin-1-yl}methyl)-3,4-dihydro-2H-chromene-7-carbonitrile] | 7.04 | –
2 | COc1cc(C#N)ccc1CCN1CCN(CCc2ccc([N+](=O)[O-])cc2)CC1 [Example 31, 3-Methoxy-4-(2-{4-[2-(4-nitrophenyl)ethyl]piperazin-1-yl}ethyl)benzonitrile] | 6.52 | –
3 | O=[N+]([O-])c1ccc(CCN2CC3CCC2CN3CCc2ccc([N+](=O)[O-])cc2)cc1 [Example 20, 2,5-Bis[2-(4-nitrophenyl)ethyl]-2,5-diazabicyclo[2.2.2]octane] | 6.68 | –
4 | Cc1cc(CCN2CCN(CCc3ccc([N+](=O)[O-])cc3)CC2)ccc1C#N [Example 24, 2-Methyl-4-(2-{4-[2-(4-nitrophenyl)ethyl]piperazin-1-yl}ethyl)benzonitrile] | 6.72 | –
5 | COc1cc(CCN2CCN(CCc3cc(OC)c(C#N)cc3F)CC2)c(F)cc1C#N [Example 54, 4,4′-(Piperazine-1,4-diyldiethane-2,1-diyl)bis(5-fluoro-2-methoxybenzonitrile)] | 6.47 | –
6 | c1cc2nonc2cc1CCN1CCN(C2CCc3cc(-n4cnnn4)ccc3C2)CC1 (centres unmarked) [Example 27, 5-(2-{4-[6-(1H-Tetrazol-1-yl)-1,2,3,4-tetrahydronaphthalen-2-yl]piperazin-1-yl}ethyl)-2,1,3-benzoxadiazole] | 6.01 | –
7 | N#Cc1ccc2c(c1)CCC(N1CCN(CCc3ccc([N+](=O)[O-])cc3)CC1)C2 (centres unmarked) [Example 3, 6-{4-[2-(4-Nitrophenyl)ethyl]piperazin-1yl}-5,6,7,8-tetrahydronaphthalene-2-carbonitrile] | 7.30 | –
8 | O=[N+]([O-])c1ccc(CCN2CCN(CCc3ccc([N+](=O)[O-])cc3)C(C3CC3)C2)cc1 (centres unmarked) [Example 11, 2-Cyclopropyl-1,4-bis[2-(4-nitrophenyl)ethyl]piperazine] | 6.07 | –
9 | N#Cc1ccc2c(c1)CCCC2CN1CCN(CCc2ccc3c(c2)COC3=O)CC1 (centres unmarked) [Example 37, 5-({4-[2-(1-Oxo-1,3-dihydro-2-benzofuran-5-yl)ethyl]piperazin-1-yl}methyl)-5,6,7,8-tetrahydronaphalene-2-carbonitrile] | 6.34 | –
10 | COC(=O)CC1CN(CCc2ccc([N+](=O)[O-])cc2)CCN1CCc1ccc([N+](=O)[O-])cc1 (centres unmarked) [Example 21, Methyl{1,4-bis[2-(4-nitrophenyl)ethyl]piperazin-2-yl}acetate] | 6.41 | –
11 | O=C1OCc2cc(CCN3CCN(CCc4ccc(-n5cnnn5)nc4)CC3)ccc21 [Example 42, 5-[2-[4-[2-[6-(Tetrazol-1-yl)-3-pyridyl]ethyl]piperazin-1-yl]ethyl]-3H-isobenzofuran-1-one] | 6.04 | –
12 | COc1cc(CCN2CCN(CCc3ccc4c(c3C)COC4=O)CC2)c(F)cc1C#N [Example 53, 5-Fluoro-2-methoxy-4-(2-{4-[2-(4-methyl-1-oxo-1,3-dihydro-2-benzofuran-5-yl)ethyl]piperazin-1-yl}ethyl)benzonitrile] | 7.47 | –
13 | O=[N+]([O-])c1ccc(CCN2CCN(C3Cc4ccc([N+](=O)[O-])cc4C3)CC2)cc1 (centres unmarked) [Example 30, 1-(5-Nitro-2,3-dihydro-1H-inden-2-yl)-4-[2-(4-nitrophenyl)ethyl]piperazine] | 6.51 | –
14 | Cc1c(CCN2CCN(CCc3ccc(C#N)c(OC(F)F)c3)CC2)ccc2c1COC2=O [Example 49, 2-(Difluoromethoxy)-4-[2-[4-[2-(4-methyl-1-oxo-3H-isobenzofuran-5-yl)ethyl]piperazin-1-yl]ethyl]benzonitrile] | 6.80 | –
15 | N#Cc1c(F)cc(CCN2CCN(CCc3ccc([N+](=O)[O-])cc3)CC2)cc1F [Example 28, 2,6-Difluoro-4-(2-{4-[2-(4-nitrophenyl)ethyl]piperazin-1-yl}ethyl)benzonitrile] | 6.80 | –
16 | O=C1OCc2cc(CCN3CCN(C4CCc5cc6nonc6cc5C4)CC3)ccc21 (centres unmarked) [Example 33, 5-{2-[4-(5,6,7,8-Tetrahydronaphtho[2,3-c][1,2,5]oxadiazol-6-yl)piperazin-1-yl]ethyl}-2-benzofuran-1(3H)-one] | 6.68 | –
17 | COc1cc(CCN2CCN(CCc3ccc([N+](=O)[O-])cc3)CC2)ccc1C#N [Example 22, 2-Methoxy-4-(2-{4-[2-(4-nitrophenyl)ethyl]piperazin-1-yl}ethyl)benzonitrile] | 7.28 | –
18 | N#Cc1ccc2c(c1)CC(N1CCN(CCc3ccc([N+](=O)[O-])cc3)CC1)C2 (centres unmarked) [Example 29, 2-{4-[2-(4-Nitrophenyl)ethyl]piperazin-1-yl}-2,3-dihydro-1H-indene-5-carbonitrile] | 6.14 | –
19 | N#Cc1cccc2c1CCC2CN1CCN(CCc2ccc3c(c2)COC3=O)CC1 (centres unmarked) [Example 34, 1-((4-(2-(1-Oxo-1,3-dihydroisobenzofuran-5-yl)ethyl)piperazin-1-yl)methyl)-2,3-dihydro-1H-indene-4-carbonitrile] | 6.57 | –
20 | N#Cc1ccc2c(c1)CC[C@H](N1CCN(CCc3ccc([N+](=O)[O-])cc3)CC1)C2 [Example 25, (6S)-6-{4-[2-(4-Nitrophenyl)ethyl]piperazin-1-yl}-5,6,7,8-tetrahydronaphthalene-2-carbonitrile] | 7.08 | –
21 | COC(=O)[C@H](Cc1ccc([N+](=O)[O-])cc1)N1CCN(CCc2ccc([N+](=O)[O-])cc2)CC1 [Example 8, Methyl(2S)-3-(4-nitrophenyl)-2-{4-[2-(4-nitrophenyl)ethyl]piperazin-1-yl}propanoate] | 6.29 | –
22 | COc1cc(CCN2CCN(CCc3ccc4c(c3)COC4=O)C(C(F)(F)F)C2)ccc1C#N (centres unmarked) [Example 51, 2-Methoxy-4-(2-{4-[2-(1-oxo-1,3-dihydro-2-benzofuran-5-yl)ethyl]-3-(trifluoromethyl)piperazin-1-yl}ethyl)benzonitrile] | 6.19 | –

Second part, the compound after the results:

Row | pIC50 [1] | pIC50 (Table 1, read-out: ^86Rb^+ Efflux Assay IC50) | Compound
23 | 7.10 | – | Cc1c(CCN2CCN(CCc3ccc4c(c3)COC4=O)CC2)ccc(C#N)c1F [Example 81, 2-Fluoro-3-methyl-4-(2-{4-[2-(1-oxo-1,3-dihydro-2-benzofuran-5-yl)ethyl]piperazin-1-yl}ethyl)benzonitrile]
24 | 7.11 | – | COc1c(C#N)ccc(CCN2CCN(CCc3ccc4c(c3C)COC4=O)CC2)c1C [Example 84, 2-Methoxy-3-methyl-4-(2-{4-[2-(4-methyl-1-oxo-1,3-dihydro-2-benzofuran-5-yl)ethyl]piperazin-1-yl}ethyl)benzonitrile]
25 | 7.12 | 7.12 | Cc1c(CCN2CCN(CCc3ccc4c(c3C)COC4=O)CC2)ccc2c1COC2=O [Example 59, 5,5′-(Piperazine-1,4-diyldiethane-2,1-diyl)bis(4-methyl-2-benzofuran-1(3H)-one)]
26 | 7.30 | – | N#Cc1ccc2c(c1)CCC(N1CCN(CCc3ccc4c(c3)COC4=O)CC1)C2 (centres unmarked) [Example 66, 6-{4-[2-(1-Oxo-1,3-dihydro-2-benzofuran-5-yl)ethyl]piperazin-1-yl}-5,6,7,8-tetrahydronaphthalene-2-carbonitrile]
27 | 7.12 | – | N#Cc1cc(Cl)c(CCN2CCN(CCc3ccc4c(c3)COC4=O)CC2)cc1F [Example 78, 5-Chloro-2-fluoro-4-(2-{4-[2-(1-oxo-1,3-dihydro-2-benzofuran-5-yl)ethyl]piperazin-1-yl}ethyl)benzonitrile]
28 | 7.13 | – | CCOc1cc(CCN2CCN(CCc3ccc4c(c3C)COC4=O)CC2)ccc1C#N [Example 77, 2-Ethoxy-4-(2-{4-[2-(4-methyl-1-oxo-1,3-dihydro-2-benzofuran-5-yl)ethyl]piperazin-1-yl}ethyl)benzonitrile]
29 | 6.74 | – | COc1c(C#N)ccc(CCN2CCN(CCc3ccc4c(c3)COC4=O)CC2)c1C [Example 83, 2-Methoxy-3-methyl-4-(2-{4-[2-(1-oxo-1,3-dihydro-2-benzofuran-5-yl)ethyl]piperazin-1-yl}ethyl)benzonitrile]
30 | 7.46 | – | Cc1c(CCN2CCN(CCc3ccc(C#N)c(Cl)c3)CC2)ccc2c1COC2=O [Example 71, 2-Chloro-4-(2-{4-[2-(4-methyl-1-oxo-1,3-dihydro-2-benzofuran-5-yl)ethyl]piperazin-1-yl}ethyl)benzonitrile]
31 | 6.80 | – | COc1c(C#N)ccc(CCN2CCN(CCc3ccc4c(c3)COC4=O)CC2)c1Cl [Example 87, 3-Chloro-2-methoxy-4-(2-{4-[2-(1-oxo-1,3-dihydro-2-benzofuran-5-yl)ethyl]piperazin-1-yl}ethyl)benzonitrile]
32 | 7.32 | – | Cc1c(CCN2CCN(CCc3cc(F)c(C#N)cc3Cl)CC2)ccc2c1COC2=O [Example 79, 5-Chloro-2-fluoro-4-(2-{4-[2-(4-methyl-1-oxo-1,3-dihydro-2-benzofuran-5-yl)ethyl]piperazin-1-yl}ethyl)benzonitrile]
33 | 7.04 | – | COc1c(C#N)ccc(CCN2CCN(CCc3ccc4c(c3)COC4=O)CC2)c1F [Example 72, 3-Fluoro-2-methoxy-4-(2-{4-[2-(1-oxo-1,3-dihydro-2-benzofuran-5-yl)ethyl]piperazin-1-yl}ethyl)benzonitrile]
34 | 6.70 | – | Cc1c(CCN2CCN(CCc3ccc(C#N)c(OC(F)(F)F)c3)CC2)ccc2c1COC2=O [Example 69, 2-Trifluoromethoxy-4-(2-{4-[2-(4-methyl-1-oxo-1,3-dihydro-2-benzofuran-5-yl)ethyl]piperazin-1-yl}ethyl)benzonitrile]
35 | 6.64 | – | Cc1c(CCN2CCN(CCc3c(F)cc(C#N)c(F)c3F)CC2)ccc2c1COC2=O [Example 75, 2,3,5-Trifluoro-4-(2-{4-[2-(4-methyl-1-oxo-1,3-dihydro-2-benzofuran-5-yl)ethyl]piperazin-1-yl}ethyl)benzonitrile]
36 | 7.04 | – | COc1c(C#N)ccc(CCN2CCN(CCc3ccc4c(c3C)COC4=O)CC2)c1F [Example 73, 3-Fluoro-2-methoxy-4-(2-{4-[2-(4-methyl-1-oxo-1,3-dihydro-2-benzofuran-5-yl)ethyl]piperazin-1-yl}ethyl)benzonitrile]
37 | 6.82 | – | N#Cc1ccc(CCN2CCN(CCc3ccc4c(c3)COC4=O)CC2)cc1OC(F)F [Example 63, 2-(Difluoromethoxy)-4-(2-{4-[2-(1-oxo-1,3-dihydro-2-benzofuran-5-yl)ethyl]piperazin-1-yl}ethyl)benzonitrile]
